Laboratory results reported in paper PMC4503454, “A Lead-In with Silibinin Prior to Triple-Therapy Translates into Favorable Treatment Outcomes in Difficult-To-Treat HIV/Hepatitis C Coinfected Patients” (PLoS ONE, 2015).

What was measured:
[1] = Antiretroviral plasma trough levels before and during silibinin; type: in vivo, human
Description: Plasma samples obtained from HIV-HCV infected individuals were isolated by immediate centrifugation at 1850 X g (3000 rpm) and stored at -80°C. For the plasma quantification of antiretroviral drugs, samples were inactivated for virus at 60°C for 60 minutes. Plasma levels were determined by liquid chromatography coupled with tandem mass spectrometry (LC-MS/MS) after protein precipitation with acetonitrile according to our previously reported validated analytical method. The laboratory participates in an international external quality assurance program for antiretroviral drugs analysis (KKGT, Stichting Kwaliteitsbewaking Klinische Geneesmiddelanalyse en Toxicologie, Association for Quality Assessment in TDM and clinical Toxicology, The Hague, The Netherlands). Plasma trough levels for raltegravir (RAL), darunavir (DRV), atazanavir (ATV), and etravirine (ETV) were graphically extrapolated from measured concentrations, using population pharmacokinetic models previously published. Reference values for efavirenz (EFV) were adopted from a study from Marzolini et al.. The median trough concentrations for these agents in HIV-infected persons receiving the recommended dose are taken from the guidelines for the use of antiretroviral agents in HIV-1 infected adults and adolescents.
We used an intention-to-continue treatment approach to calculate virologic responses as percentage of patients with undetectable HCV-RNA, using all patients who started treatment as denominator. Plasma concentrations are presented as median (range). Two-tailed paired t-tests were conducted to detect difference in trough levels of antiretroviral drugs between pre- and post-administration of silibinin. GraphPad Prism 6 (GraphPad Software, La Jolla, CA) was used with an alpha of 0.05.

[2] = design: species or system human; conditions: in vivo; for Median Cmax (Range): human, iv, 20 mg/kg/day
Description: To measure silibinin plasma concentration, the plasma concentrations of silibinin isomers (A and B) and silibinin dihydrogen succinate isomers (A and B) were determined by LC/MS-MS. Of note, the range of plasma concentrations of the LC-MS/MS assay was selected according to the levels reported in the study from Sala et al. Briefly, 100 μl of plasma was added to 20 μl of internal standard naringenin (IS) and extracted by protein precipitation. After evaporation and reconstitution, 20 μL was injected into a Select- HSS T3 (2.1x75 mm, 3.5 μm) (Waters, Milford, MA, USA).
Chromatographic separations were performed using a gradient program with 10 mM ammonium formate containing 0.1% formic acid and acetonitrile with 0.1% formic acid. Analytes were quantified by electrospray ionization-triple quadrupole mass spectrometry using the selected reaction monitoring detection in the negative mode. Importantly, the selected gradient program allows adequate separation to quantify isomers A and B individually. The method has a mean inter-day coefficient of variation (CV) % of <10% and an inter-day deviation from nominal values of <7%.
Of note, the Cmin of isomer A of both silibinin dihydrogen succinate and silibinin were 2- and 7-fold higher than the corresponding values of isomer B [20].

[3] = plasma, paired t-test, ATV/r p = 0.89, RAL p = 0.90, ETV, EFV, DRV/r p = 0.14

| Molecule | trough level under silibinin coadministration (day 1 vs day 12) [1, 3] | other results |
| --- | --- | --- |
| O=C1Nc2ccc(Cl)cc2[C@@](C#CC2CC2)(C(F)(F)F)O1 [EFV, efavirenz] |  | trough level under silibinin coadministration (day 1 vs day 12) ([1]; in vivo): not influenced |
| Cc1cc(C#N)cc(C)c1Oc1nc(Nc2ccc(C#N)cc2)nc(N)c1Br [ETV, etravirine] | not influenced |  |
| Cc1nnc(C(=O)NC(C)(C)c2nc(C(=O)NCc3ccc(F)cc3)c(O)c(=O)n2C)o1 [RAL, raltegravir] | not influenced |  |
| COc1cc([C@H]2Oc3cc([C@H]4Oc5cc(O)cc(O)c5C(=O)[C@@H]4O)ccc3O[C@@H]2CO)ccc1O [Silibinin A] |  | Median Cmax (Range) [2]: 0.62 (0.29–1.07) μg/mL; Cmin of isomer A relative to isomer B [2]: 7 fold |
| COc1cc(C2Oc3cc(C4Oc5cc(O)cc(O)c5C(=O)C4O)ccc3OC2CO)ccc1O (centres unmarked) [Silibinin B] |  | Median Cmax (Range) [2]: 0.25 (0.08–0.78) μg/mL |
| atazanavir/ritonavir [ATV/r] | not influenced |  |
| darunavir/ritonavir [DRV/r] | not influenced |  |
